Assay results as given in PubChem BioAssay AID248 (DTP/NCI, 2004).
Several values for one entry are separate records, joined by “and”; a condition that tells them apart may be missing. Identical values can stand only once. Inconclusive results and toxic doses are left out. No stated cut-off is given here; in the data, active means T/C of 150% or more; inactive means T/C below 125%.

System: L1210 leukemia ip in BDF1 mice, survival T/C
Assay: NCI In Vivo Anticancer Drug Screen. Data for tumor model L1210 Leukemia (intraperitoneal) in B6D2F1 (BDF1) mice
Conditions: endpoint: mean survival time, higher = longer survival
How it was run: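 Each compound was tested against a transplantable tumor grown in mice. The endpoint was survival, with treated animals benchmarked against vehicle controls as a simple ratio.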

[1] = dose: 100.0 mg/kg/injection, schedule: Q04DX003 (ip), vehicle: Klucel (hydroxypropylcellulose) (HPC)
[2] = dose: 200.0 mg/kg/injection, schedule: Q04DX003 (ip), vehicle: Klucel (hydroxypropylcellulose) (HPC)
[3] = dose: 400.0 mg/kg/injection, schedule: Q04DX003 (ip), vehicle: Klucel (hydroxypropylcellulose) (HPC)
[4] = dose: 100.0 mg/kg/injection, schedule: Q01DX009 (ip), vehicle: saline with Tween-80
[5] = dose: 200.0 mg/kg/injection, schedule: Q01DX009 (ip), vehicle: saline with Tween-80
[6] = dose: 100.0 mg/kg/injection, schedule: Q01DX001 (ip), vehicle: Klucel (hydroxypropylcellulose) (HPC)
[7] = dose: 200.0 mg/kg/injection, schedule: Q01DX001 (ip), vehicle: Klucel (hydroxypropylcellulose) (HPC)
[8] = dose: 400.0 mg/kg/injection, schedule: Q01DX001 (ip), vehicle: Klucel (hydroxypropylcellulose) (HPC)
[9] = dose: 100.0 mg/kg/injection, schedule: Q04DX002 (ip), vehicle: saline with Tween-80
[10] = dose: 200.0 mg/kg/injection, schedule: Q04DX002 (ip), vehicle: saline with Tween-80
[11] = dose: 400.0 mg/kg/injection, schedule: Q04DX002 (ip), vehicle: saline with Tween-80
[12] = dose: 100.0 mg/kg/injection, schedule: Q04DX003 (ip), vehicle: saline with Tween-80
[13] = dose: 200.0 mg/kg/injection, schedule: Q04DX003 (ip), vehicle: saline with Tween-80
[14] = dose: 400.0 mg/kg/injection, schedule: Q04DX003 (ip), vehicle: saline with Tween-80
[15] = dose: 400.0 mg/kg/injection, schedule: Q01DX001 (ip), vehicle: saline

Measured: T/C

O=NN(c1ccccc1)c1ccc2ccccc2c1
inactive: [1] 105 % of control | [2] 110 % of control | [3] 110 % of control

COc1cc2ccc3c(c2cc1OC)C(=O)CNC3C (stereo not drawn)
inactive: dose: 12.5 mg/kg/injection, schedule: Q04DX003 (ip), vehicle: saline 100 % of control | dose: 50.0 mg/kg/injection, schedule: Q04DX003 (ip), vehicle: Klucel (hydroxypropylcellulose) (HPC) 114 % of control | [1] 98 % of control | [2] 106 % of control | [3] 101 % of control

Nc1nc(N)c2cc(NCc3ccc(Br)cc3)ccc2n1
inactive: dose: 6.25 mg/kg/injection, schedule: Q01DX009 (ip), vehicle: saline with Tween-80 103 % of control | dose: 12.5 mg/kg/injection, schedule: Q01DX009 (ip), vehicle: saline with Tween-80 100 % of control | dose: 25.0 mg/kg/injection, schedule: Q04DX003 (ip), vehicle: saline 96 % of control

O=c1ccn(CCC(COCc2ccccc2)COCc2ccccc2)c(=O)[nH]1
inactive: [1] 96 % of control | [2] 101 % of control | [3] 101 % of control

C=C1C(=O)OC2CC(C)C3CC(O)OC(O)C3(C)CC12 (stereo not drawn)
inactive: dose: 0.39 mg/kg/injection, schedule: Q01DX005 (ip), vehicle: water 108 % of control | dose: 0.78 mg/kg/injection, schedule: Q01DX005 (ip), vehicle: water 108 % of control | dose: 1.56 mg/kg/injection, schedule: Q01DX005 (ip), vehicle: water 106 % of control | dose: 3.13 mg/kg/injection, schedule: Q01DX005 (ip), vehicle: water 106 % of control | dose: 6.25 mg/kg/injection, schedule: Q01DX005 (ip), vehicle: water 104 % of control

Oc1cc(-c2cc(O)c(O)c(O)c2)cc(O)c1O
inactive: [4] 104 % of control | [5] 108 % of control

CCOc1ccc(N=Nc2c(O)n(-c3ccccc3)c(=S)n(-c3ccccc3)c2=O)cc1
inactive: [6] 96 % of control | [7] 107 % of control | [8] 100 % of control

Cc1nc2c(-c3ccccc3)nc(C)n2nc1C
inactive: [9] 111 % of control | [10] 108 % of control | [11] 92 % of control

CCOC(=O)C(C(=O)OCC)C1c2ccccc2C(=NO)c2ccccc21 (stereo not drawn)
inactive: dose: 50.0 mg/kg/injection, schedule: Q01DX009 (ip), vehicle: Klucel (hydroxypropylcellulose) (HPC) 96 % of control | dose: 100.0 mg/kg/injection, schedule: Q01DX009 (ip), vehicle: Klucel (hydroxypropylcellulose) (HPC) 98 % of control | [1] 88 % of control | dose: 200.0 mg/kg/injection, schedule: Q01DX009 (ip), vehicle: Klucel (hydroxypropylcellulose) (HPC) 94 % of control | [2] 92 % of control

O=C1c2ccccc2C(=O)N1N1C(=O)C2C3CCC(O3)C2C1=O (stereo not drawn)
inactive: dose: 100.0 mg/kg/injection, schedule: Q01DX001 (ip), vehicle: saline with Tween-80 97 % of control and 91 % of control | [9] 101 % of control and 106 % of control | [12] 93 % of control and 95 % of control | dose: 200.0 mg/kg/injection, schedule: Q01DX001 (ip), vehicle: saline with Tween-80 94 % of control and 90 % of control | [10] 105 % of control | [13] 95 % of control and 100 % of control | dose: 400.0 mg/kg/injection, schedule: Q01DX001 (ip), vehicle: saline with Tween-80 96 % of control and 97 % of control | [11] 94 % of control and 101 % of control | [14] 95 % of control and 100 % of control

CC12C(c3ccccc3)=C(c3ccccc3)C(C)(C3C(=O)OC(=O)C31)C1C(=O)OC(=O)C12 (stereo not drawn)
inactive: [6] 88 % of control | [7] 100 % of control | [8] 100 % of control

O=C(O)C1C2C=Cc3ccccc3C21 (stereo not drawn)
inactive: [15] 90 % of control

O=C(Nc1ccc(Cl)c(Cl)c1)OCn1ncc2ccc([N+](=O)[O-])cc21
inactive: dose: 200.0 mg/kg/injection, schedule: Q01DX001 (ip), vehicle: saline 96 % of control | [15] 100 % of control

Cc1ccc(S(=O)(=O)S/C(=N\c2ccccn2)Nc2ccccn2)cc1
inactive: dose: 100.0 mg/kg/injection, schedule: Q01DX001 (ip), vehicle: carboxymethylcellulose (CMC) 98 % of control | dose: 200.0 mg/kg/injection, schedule: Q01DX001 (ip), vehicle: carboxymethylcellulose (CMC) 93 % of control | dose: 400.0 mg/kg/injection, schedule: Q01DX001 (ip), vehicle: carboxymethylcellulose (CMC) 91 % of control

[Cl][Pt+2][Cl].[NH-]C1CCCC1.[NH-]C1CCCC1
inactive: dose: 10.0 mg/kg/injection, schedule: Q01DX009 (ip), vehicle: Klucel (hydroxypropylcellulose) (HPC) 102 % of control | dose: 20.0 mg/kg/injection, schedule: Q01DX009 (ip), vehicle: Klucel (hydroxypropylcellulose) (HPC) 116 % of control | dose: 20.0 mg/kg/injection, schedule: Q04DX003 (ip), vehicle: Klucel (hydroxypropylcellulose) (HPC) 121 % of control | dose: 40.0 mg/kg/injection, schedule: Q01DX005 (ip), vehicle: olive oil, sesame oil, peanut oil 109 % of control | dose: 40.0 mg/kg/injection, schedule: Q01DX009 (ip), vehicle: Klucel (hydroxypropylcellulose) (HPC) 107 % of control | dose: 40.0 mg/kg/injection, schedule: Q04DX003 (ip), vehicle: Klucel (hydroxypropylcellulose) (HPC) 111 % of control and 123 % of control | dose: 66.0 mg/kg/injection, schedule: Q01DX005 (ip), vehicle: olive oil, sesame oil, peanut oil 112 % of control | dose: 80.0 mg/kg/injection, schedule: Q01DX009 (ip), vehicle: Klucel (hydroxypropylcellulose) (HPC) 121 % of control | dose: 80.0 mg/kg/injection, schedule: Q04DX003 (ip), vehicle: Klucel (hydroxypropylcellulose) (HPC) 117 % of control | dose: 100.0 mg/kg/injection, schedule: Q01DX005 (ip), vehicle: olive oil, sesame oil, peanut oil 120 % of control | dose: 150.0 mg/kg/injection, schedule: Q01DX005 (ip), vehicle: olive oil, sesame oil, peanut oil 115 % of control | dose: 160.0 mg/kg/injection, schedule: Q01DX009 (ip), vehicle: Klucel (hydroxypropylcellulose) (HPC) 124 % of control | dose: 160.0 mg/kg/injection, schedule: Q04DX003 (ip), vehicle: Klucel (hydroxypropylcellulose) (HPC) 108 % of control and 112 % of control | dose: 320.0 mg/kg/injection, schedule: Q01DX009 (ip), vehicle: Klucel (hydroxypropylcellulose) (HPC) 96 % of control | dose: 320.0 mg/kg/injection, schedule: Q04DX003 (ip), vehicle: Klucel (hydroxypropylcellulose) (HPC) 118 % of control

CCOC(=O)C(CCC1=NC(C)(C)CC(C)O1)C(=O)OCC (stereo not drawn)
inactive: [12] 94 % of control | [13] 101 % of control | [14] 94 % of control

COc1ccc(C(O)(c2ccccc2)C(OC(=O)c2cc([N+](=O)[O-])cc([N+](=O)[O-])c2)c2ccccc2)cc1 (stereo not drawn)
inactive: [4] 91 % of control | [5] 96 % of control | dose: 400.0 mg/kg/injection, schedule: Q01DX009 (ip), vehicle: saline with Tween-80 95 % of control

CCCCC(CCCC)NCC(C)OC(=O)c1ccc(N)cc1 (stereo not drawn)
inactive: dose: 9.5 mg/kg/injection, schedule: Q01DX001 (ip), vehicle: other 100 % of control | dose: 19.0 mg/kg/injection, schedule: Q01DX001 (ip), vehicle: other 105 % of control | dose: 38.0 mg/kg/injection, schedule: Q01DX001 (ip), vehicle: other 96 % of control | dose: 75.0 mg/kg/injection, schedule: Q01DX001 (ip), vehicle: other 92 % of control

CSCCSc1ncnc2nc[nH]c12
inactive: [12] 107 % of control | [13] 102 % of control | [14] 101 % of control
